# BindingDB's records for doi:10.1021/jm500801r (Southern Research Institute, 2014)
# Assay: Antagonist activity against human D3R expressed in CHO cells assessed as inhibition of quinpirole-induced mitogenesis after 16 hrs by [3H]thymidine uptake assay
row,IC50 [nM],SMILES
1,7.2,O=C(NCCCCN1CCN(c2cccc(Cl)c2Cl)CC1)c1cn2ccccc2n1
2,208,CC(C)(C)c1nc(N2CCN(CCCCNC(=O)c3nc4ccccc4[nH]3)CC2)cc(C(F)(F)F)n1
3,3,COc1ccccc1N1CCN(CCCCNC(=O)c2cn3ccccc3n2)CC1
4,940,O=C(NCCCCN1CCN(c2ncnc3ccccc23)CC1)c1cn2ccccc2n1
